Here are results for 32 compounds from US5198458A, “Pyrrolidineamide derivatives of acylamino acid and pharmaceutical composition containing the same” (Suntory Limited, priority 1986, dated 1993).

Series [1] deals with prolyl endopeptidase (Elizabethkingia meningoseptica, UniProt P27028). It is filed as biochemical. Particulars: amount per test tube for 50% inhibition; pH 7.0, 35° C., 10 minutes. The method, then:
Measurement of anti-prolyl endopeptidase activity
The method of Yoshimoto and Tsuru [T. Yoshimoto and D. Tsuru, Agric. […] A mixture of 0.0025M Z-glycyl-proline-β-naphthylamide (0.25 ml), 0.1M phosphate buffer (pH, 7.0; 0.99 ml) and a solution of a particular anti-propyl endopeptidase compound (0.01 ml) was incubated in a test tube at 37° C. for 3 minutes. Thereafter, 0.1 ml of a solution of prolyl endopeptidase (0.2 U/ml) was added and the mixture was incubated at 35° C. for 10 minutes. After the reaction, 2.0 ml of Triton X-100 in 1M acetate buffer (pH, 4.0) was added to the reaction mixture so that the final concentration of the surfactant was 10%. The mixture was left at room temperature for 15 minutes and the absorbance (a) at 410 nm was measured.
A sample of a blind test was prepared by using the buffer instead of the anti-prolyl endopeptidase compound and its absorbance (b) was also measured. The percent inhibition of prolyl endopeptidase was calculated by the formula: […]

The test system of series [2] is experimental amnesia caused in rats by scopolamine. Put plainly: Preventive effect against experimental amnesia caused in rats by scopolamine (passive avoidance learning, intraperitoneal administration). In kind it is in vivo, Wister male rats. The following applies: for No. of avoidances during learning / Initial avoidance time: before scopolamine (3 mg/kg i.p.); for Initial avoidance time: learning; for Avoidance time After 24 hrs / No. of amnesic rats/No. of rats tested / Percentage amnesia: scopolamine 3 mg/kg i.p. after learning, 24 hrs. The protocol:
Measurement of preventive effect against experimental amnesia caused in rats by scopolamine (Intraperitoneal administration)
Several of the anti-prolyl endopeptidase compounds according to the present invention were checked for their ability to prevent the inhibition of long-term memory fixation by scopolamine. […] One hour after the administration, electric shocks were applied to the rats so that they would acquire passive avoidance learning. Immediately thereafter, scopolamine was administered intraperitoneally to each rat in an amount of 3 mg per kg of body weight.
The results of the test were assessed 24 hours after the administration of scopolamine. The number of amnesic rats and of sound rats was counted for each of the control group (rats to which the test compounds were not administered but to which only scopolamine and physiological saline were administered intraperitoneally) and the treated group (rats to which both the test compound and scopolamine were administered).

Series [3] in a line: Acute toxicity test in mice. The following applies: mouse, in vivo, ip; intraperitoneal, in DMSO, five mice per group. The method, then:
Acute toxicity test in mice
Test samples were prepared by dissolving the respective compounds in DMSO, and a portion (0.1 ml) of the so conditioned test sample was administered intraperitoneally to each of the mice used. Each of the treated groups consisted of five mice.

Where only a bound is given, the exact number is not on record here.

Usually LD50 stands for the dose at which mortality reaches 50%. Read a high LD50 as a less toxic substance.

prolyl endopeptidase, sequence (P27028 21-705): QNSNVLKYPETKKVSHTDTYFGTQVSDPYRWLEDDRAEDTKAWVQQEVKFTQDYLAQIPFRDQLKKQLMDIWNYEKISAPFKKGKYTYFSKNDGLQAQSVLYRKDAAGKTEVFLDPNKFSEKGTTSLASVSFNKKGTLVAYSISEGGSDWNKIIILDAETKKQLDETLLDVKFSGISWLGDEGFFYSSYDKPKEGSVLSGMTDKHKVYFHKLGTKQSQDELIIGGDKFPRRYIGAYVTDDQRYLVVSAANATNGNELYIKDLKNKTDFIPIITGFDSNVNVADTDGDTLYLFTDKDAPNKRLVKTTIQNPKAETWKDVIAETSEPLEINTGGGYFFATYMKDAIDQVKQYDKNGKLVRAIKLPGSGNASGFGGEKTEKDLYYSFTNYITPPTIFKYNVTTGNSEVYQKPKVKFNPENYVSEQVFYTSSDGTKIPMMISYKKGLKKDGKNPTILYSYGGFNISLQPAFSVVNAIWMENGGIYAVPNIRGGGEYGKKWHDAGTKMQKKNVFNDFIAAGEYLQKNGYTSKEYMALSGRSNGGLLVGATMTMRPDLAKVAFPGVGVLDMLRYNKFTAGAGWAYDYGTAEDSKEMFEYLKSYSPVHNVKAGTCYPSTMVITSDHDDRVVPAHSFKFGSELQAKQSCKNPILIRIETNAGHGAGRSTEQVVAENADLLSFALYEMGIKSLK

In series [1], `O=C([C@@H]1CCCN1C(=O)CCCOc1cccc(Cc2ccccc2)c1)N1CCCC1` [compound 33] came in with an IC50 of 0.0004 μg/test tube.

As to `CCC(=O)c1ccccc1OCCCC(=O)N1CCC[C@H]1C(=O)N1CCCC1` [compound 24], the IC50 in series [1] turned out to be 0.004 μg/test tube.

In series [1], `O=C([C@@H]1CCCN1C(=O)CCCOc1ccc(/C=C/c2ccccc2)cc1)N1CCCC1` [compound 36] came in with an IC50 of 0.003 μg/test tube.

Consider `CCCCCCCC/C=C\CCCCCCCC(=O)N1CCC[C@H]1C(=O)N1CCCC1` [Compound No. 43, N-(N-oleoyl-L-prolyl)pyrrolidine], for which, in series [2] (1 mg/kg i.p.), the “No. of avoidances during learning” value worked out at 3.4, the Initial avoidance time came out at 1.9 s, the “Avoidance time After 24 hrs” value stood at 240.8 s and the “No. of amnesic rats/No. of rats tested” value is given as 2/10. This compound also yielded a Percentage amnesia in series [2] (1 mg/kg i.p.) of 20. The same compound returned an IC50 in series [1] of 0.02 μg/test tube.

As to `O=C([C@@H]1CCCN1C(=O)COc1ccc(Cl)cc1)N1CCCC1` [compound 20], the IC50 in series [1] is 0.20 μg/test tube.

Turning to `O=C([C@@H]1CCCN1C(=O)CCCCOc1ccc(Oc2ccccc2)cc1)N1CCCC1` [compound 29], the IC50 in series [1] was 0.009 μg/test tube.

In series [1], `O=C([C@@H]1CCCN1C(=O)CCCCOc1ccccc1/C=C/c1ccccc1)N1CCCC1` [compound 40] had an IC50 of 0.002 μg/test tube.

Take `O=C([C@@H]1CCCN1C(=O)CCCOc1ccccc1CCc1ccccc1)N1CCCC1` [compound 37]: the 50% lethal dose (LD50) in series [3] was determined as 350 mg/kg. For the same compound, the IC50 in series [1] is reported as 0.002 μg/test tube.

Consider `O=C([C@@H]1CCCN1C(=O)CCCOc1ccccc1OCc1ccccc1)N1CCCC1` [compound 30], for which, in series [1], the IC50 worked out at 0.005 μg/test tube.

On to `CCCCCCCC/C=C\CCCCCCCC(=O)N[C@@H](CCCC)C(=O)N1CCCC1` [compound 16], for which, in series [2] (20 mg/kg i.p.), the “No. of avoidances during learning” value was 2.1, the Initial avoidance time was 2.2 s, the “Avoidance time After 24 hrs” value amounted to 252.0 s and the “No. of amnesic rats/No. of rats tested” value is listed as 2/10. In series [2] (20 mg/kg i.p.), this compound gave a Percentage amnesia of 20. The IC50 in series [1] came out at 0.07 μg/test tube.

In the case of `O=C([C@@H]1CCCN1C(=O)CCCOc1ccccc1O)N1CCCC1` [compound 22], in series [1], the IC50 is 0.008 μg/test tube.

As for `O=C([C@@H]1CCCN1C(=O)CCOc1ccccc1/C=C/c1ccccc1)N1CCCC1` [compound 39], the IC50 in series [1] turned out to be 0.003 μg/test tube.

The compound `C=CCOc1ccccc1CCCC(=O)N1CCC[C@H]1C(=O)N1CCCC1` [compound 27] came in with a median lethal dose (LD50) in series [3] of 390 mg/kg. The IC50 in series [1] turned out to be 0.01 μg/test tube.

In series [1], `CCC(=O)c1ccc(OCCCC(=O)N2CCC[C@H]2C(=O)N2CCCC2)cc1` [compound 23] came in with an IC50 of 0.003 μg/test tube.

On to `CCCCC/C=C\C/C=C\CCCCCCCC(=O)N1CCC[C@H]1C(=O)N1CCCC1` [compound 46], for which the IC50 in series [1] worked out at 0.015 μg/test tube.

Take `CC(C)C[C@H](NC(=O)CCCOc1ccccc1/C=C/c1ccccc1)C(=O)N1CCCC1` [compound 9]: the IC50 in series [1] was 0.03 μg/test tube.

The compound `CC(C)[C@H](NC(=O)CCCOc1ccc(Cc2ccccc2)cc1)C(=O)N1CCCC1` [compound 13] came in with an IC50 in series [1] of 0.04 μg/test tube.

With `CC(C)[C@H](NC(=O)CCCc1ccccc1)C(=O)N1CCCC1` [Compound No. 1, N-[N-(γ-phenyl)butyryl-L-valyl]pyrrolidine], in series [2] (25 mg/kg i.p.), the “No. of avoidances during learning” value is 1.8, the Initial avoidance time came out at 2.4 s, the “Avoidance time After 24 hrs” value stood at 243.0 s and the “No. of amnesic rats/No. of rats tested” value is on record as 3/10. Further, in series [2] (25 mg/kg i.p.), the Percentage amnesia is reported as 30.

As to `O=C(/C=C/c1ccccc1)c1ccccc1OCCCC(=O)N1CCC[C@H]1C(=O)N1CCCC1` [compound 42], in series [3], the LD50 is 360 mg/kg. The same compound registered an IC50 in series [1] of 0.0008 μg/test tube.

Compound `O=C(/C=C/c1ccccc1OCCCC(=O)N1CCC[C@H]1C(=O)N1CCCC1)c1ccccc1` [compound 41] returned an IC50 in series [1] of 0.001 μg/test tube.

For `O=C([C@@H]1CCCN1C(=O)CCCc1ccccc1)N1CCCC1` [Compound No. 18, N-[N-(γ-phenyl)butyryl-L-prolyl]pyrrolidine], in series [2] (5 mg/kg i.p.), the “No. of avoidances during learning” value stood at 1.8, the Initial avoidance time was determined as 2.8 s, the “Avoidance time After 24 hrs” value is 300.0 s and the “No. of amnesic rats/No. of rats tested” value was 0/10. The Percentage amnesia in series [2] (5 mg/kg i.p.) worked out at 0.

As for `O=C([C@@H]1CCCN1C(=O)CCCOc1ccccc1)N1CCCC1` [compound 21], in series [3], the 50% lethal dose (LD50) was 350 mg/kg. Further, the IC50 in series [1] was 0.001 μg/test tube.

The compound `CC(C)[C@H](NC(=O)CCCOc1ccccc1/C=C/c1ccccc1)C(=O)N1CCCC1` [compound 10] had an IC50 in series [1] of 0.02 μg/test tube.

Compound `CCCC[C@H](NC(=O)CCCc1ccccc1)C(=O)N1CCCC1` [compound 5] gave an IC50 in series [1] of 0.15 μg/test tube.

Turning to `CC(C)C[C@H](NC(=O)CCCOc1ccc(Cc2ccccc2)cc1)C(=O)N1CCCC1` [compound 12], the IC50 in series [1] is given as 0.08 μg/test tube.

`CCCCCCCCCc1ccc(OCCCC(=O)N2CCC[C@H]2C(=O)N2CCCC2)cc1` [compound 25] came in with an IC50 in series [1] of 0.008 μg/test tube.

In series [1], `O=C([C@@H]1CCCN1C(=O)CCCOc1ccccc1/C=C/c1ccccc1)N1CCCC1` [Compound No. 35, N-{N-[γ(o-(E)-stilbenyloxy)butyryl]-L-prolyl)pyrrolidine] yielded an IC50 of 0.001 μg/test tube.

Compound `O=C(c1ccccc1)c1ccccc1OCCCC(=O)N1CCC[C@H]1C(=O)N1CCCC1` [compound 32] displayed an IC50 in series [1] of 0.001 μg/test tube.

Consider `CC(C)C[C@H](NC(=O)CCCc1ccccc1)C(=O)N1CCCC1` [Compound No. 2], for which, in series [2] (25 mg/kg i.p.), the “No. of avoidances during learning” value was 2.2, the Initial avoidance time was found to be 2.7 s, the “Avoidance time After 24 hrs” value is 264.6 s and the “No. of amnesic rats/No. of rats tested” value was 2/10. In series [2] (25 mg/kg i.p.), this compound came in with a Percentage amnesia of 20. Further, in series [3], the LD50 is > 600 mg/kg. In addition, the IC50 in series [1] amounted to 0.15 μg/test tube.

Take `C=CCc1ccccc1OCCCC(=O)N1CCC[C@H]1C(=O)N1CCCC1` [compound 26]: the LD50 in series [3] worked out at 390 mg/kg. The IC50 in series [1] is recorded as 0.002 μg/test tube.

Regarding `O=C([C@@H]1CCCN1C(=O)CCCOc1ccccc1Cc1ccccc1)N1CCCC1` [compound 34], in series [1], the IC50 was 0.001 μg/test tube.

Consider `O=C(c1ccccc1)c1ccc(OCCCC(=O)N2CCC[C@H]2C(=O)N2CCCC2)cc1` [compound 31], for which the IC50 in series [1] was 0.004 μg/test tube.
